Measurements from ChEMBL document CHEMBL1145143, “5'-Homoaristeromycin. Synthesis and antiviral activity against orthopox viruses” (Bioorg Med Chem Lett, 2005).
Converted amounts (≈) assume the structure as drawn.

Experiments:
Vaccinia virus = assay: Concentration required for 50% inhibition of adohcy hydrolase by the compound against vaccinia virus in vero 76 cells; format: functional, organism-based; details: Orthopoxvirus vaccinia
[1] = Concentration required for 50% inhibition of adohcy hydrolase by the compound against monkeypox virus in vero 76 cells; format: functional, cell-based
Cowpox virus = assay: Concentration required for 50% inhibition of adohcy hydrolase by the compound against cowpox virus in vero 76 cells; format: functional, organism-based
[2] = Cytotoxic concentration against cowpox, monkeypox and vaccinia virus in vero 76 cells; format: functional; details: Orthopoxvirus vaccinia

With `Nc1ncnc2c1ncn2[C@@H]1C[C@H](CCO)[C@@H](O)[C@H]1O` the IC50 (Vaccinia virus) was 1.2 µg/mL (≈ 4.3 µM), the IC50 [1] was 0.12 µg/mL (≈ 0.43 µM) and the IC50 (Cowpox virus) was 0.12 µg/mL (≈ 0.43 µM). The CC50 [2] was over 100 µg/mL.
